Reference: patent US6379697B1, “Stabilization of photosensitive materials” (The Secretary of State for Defence in Her Britannic …, priority 1994, dated 2002)
Like-named read-outs stand apart in the source and are kept apart here.

Test: Photodegradation of riboflavin preparations under UV irradiation (254/365 nm), first order kinetics
Type: physicochemical
Details: for half-life: aqueous solution of free riboflavin under UV irradiation
Experimental: At time intervals a known amount of the solution or suspension was diluted with double distilled water and the absorbance or fluorescence measured.
In the case of the liposome suspensions liposomal pellets were produced, solubilised with a 10% solution of Triton-X-100 (RTM) and then diluted and measured. The entrapment and degradation of riboflavin was calculated from the absorbance readings at 444 nm, absorbance at this wavelength not interfering with the absorbance of Triton-X-100.
The photodegradation of riboflavin caused by UV irradiation follows first order kinetics and is given by the following equation: […]
where C0 is the initial concentration of riboflavin, C is the concentration of riboflavin after t min of irradiation and k is the first order photodegradation rate constant.
The graphic representation of Equation (2) is linear and the slope of the line gives the photodegradation rate constant k.
The increase in stability was expressed by the stabilization ratio. (k0/k), where k0 is the photodegradation constant of free riboflavin in aqueous solution and k the photodegradation rate constant of the various preparations.
Riboflavin gamma-cyclodextrin inclusion complexes were entrapped in DRV incorporating a light absorbing agent or antioxidant in their lipid phase selected from: oil Red 0, oxybenzone, deoxybenzone and beta-carotene or combinations thereof. […] As in the previous examples this degradation followed first order kinetics represented by the equations given earlier.
In order to determine the extent of this reduction and to determine whether during the photodegradation of riboflavin the same concentration of oil Red 0 caused different reductions in fluorescence, solutions containing known amounts of riboflavin and oil Red 0 solubilised in water using Triton-X-100 were prepared and their fluorescence measured.

half-life (aqueous solution, irradiation, read-out: half life of riboflavin in aqueous solution on irradiation): ~30 min
half-life (free riboflavin, UV irradiation, read-out: half life of riboflavin): 30 min
rate of decomposition of riboflavin in aqueous solution on irradiation (aqueous solution, irradiation): 0.024 min⁻¹
k × 10^3, rate constant for the photodegradation of riboflavin (values are k × 10^3, UV lamp 254/365 nm, 3 cm, 24° C.): 24(k °) min^−1
Structure (SMILES): Cc1cc2nc3c(=O)[nH]c(=O)nc-3n(C[C@H](O)[C@H](O)[C@H](O)CO)c2cc1C [Riboflavin, riboflavin]
